Patent US20120264735A1 (priority 2009, published 2012)

Target: T1, c-Met kinase (recombinant c-Met) (Homo sapiens, UniProt P08581)
T1 construct: 0.27 nM recombinant c-Met
Test: In vitro kinase assay I (homogeneous time-resolved fluorescence tyrosine kinase assay)
Assay type: biochemical
Outline: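 Biotinylated peptide (0.5 μM) phosphorylated by 0.2 nM recombinant c-Met with 50 μM MgATP, 60 min at room temperature, pH 7.4, 5% DMSO. EDTA stop; HTRF read with Eu-anti-phosphotyrosine antibody and streptavidin-APC. IC50 from 4-parameter logistic fit.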

T1 sequence (P08581 25-1390): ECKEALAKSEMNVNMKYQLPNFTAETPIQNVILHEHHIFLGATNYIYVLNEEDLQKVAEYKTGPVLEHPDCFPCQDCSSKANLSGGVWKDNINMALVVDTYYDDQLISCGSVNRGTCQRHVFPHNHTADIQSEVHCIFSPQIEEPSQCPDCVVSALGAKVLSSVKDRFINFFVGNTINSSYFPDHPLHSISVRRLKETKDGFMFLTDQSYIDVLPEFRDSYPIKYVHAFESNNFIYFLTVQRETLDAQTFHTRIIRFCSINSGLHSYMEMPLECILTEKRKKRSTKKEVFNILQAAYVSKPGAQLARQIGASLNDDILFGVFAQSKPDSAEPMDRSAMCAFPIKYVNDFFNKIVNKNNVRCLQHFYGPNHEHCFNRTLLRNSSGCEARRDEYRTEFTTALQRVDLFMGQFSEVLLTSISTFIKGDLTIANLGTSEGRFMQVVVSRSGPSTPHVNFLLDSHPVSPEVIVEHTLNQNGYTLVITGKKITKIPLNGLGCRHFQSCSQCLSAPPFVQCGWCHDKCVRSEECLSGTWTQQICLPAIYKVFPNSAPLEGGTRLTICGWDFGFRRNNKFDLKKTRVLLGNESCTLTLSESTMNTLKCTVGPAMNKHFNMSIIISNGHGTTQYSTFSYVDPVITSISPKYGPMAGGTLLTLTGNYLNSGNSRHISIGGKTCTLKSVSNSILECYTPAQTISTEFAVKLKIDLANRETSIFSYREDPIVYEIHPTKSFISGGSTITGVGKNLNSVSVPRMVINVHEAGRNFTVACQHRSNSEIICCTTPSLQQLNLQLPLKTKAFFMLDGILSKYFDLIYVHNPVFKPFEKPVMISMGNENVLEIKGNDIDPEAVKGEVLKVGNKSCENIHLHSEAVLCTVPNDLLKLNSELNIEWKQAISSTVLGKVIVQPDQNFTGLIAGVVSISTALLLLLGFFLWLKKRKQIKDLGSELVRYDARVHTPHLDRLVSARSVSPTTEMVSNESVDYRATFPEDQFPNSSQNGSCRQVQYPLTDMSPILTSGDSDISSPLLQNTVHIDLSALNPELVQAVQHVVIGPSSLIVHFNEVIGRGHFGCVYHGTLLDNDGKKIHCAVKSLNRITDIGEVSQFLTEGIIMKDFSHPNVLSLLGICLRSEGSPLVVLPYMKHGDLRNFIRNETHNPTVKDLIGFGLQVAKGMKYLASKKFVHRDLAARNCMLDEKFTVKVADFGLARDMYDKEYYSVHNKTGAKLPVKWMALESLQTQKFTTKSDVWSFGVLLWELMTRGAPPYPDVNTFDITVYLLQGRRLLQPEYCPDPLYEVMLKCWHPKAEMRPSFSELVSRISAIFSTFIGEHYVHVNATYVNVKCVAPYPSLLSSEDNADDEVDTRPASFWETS

IC50 [nM]	SMILES
< 100	CCOc1cnc(-c2cccc(Cc3nn(-c4ccc(C(=O)NCCO)c(F)c4)ccc3=O)c2)nc1 [Example 722, 4-{3-[3-(5-Ethoxypyrimidin-2-yl)benzyl]-4-oxopyridazin-1(4H)-yl}-2-fluoro-N-(2-hydroxyethyl)benzamide]
< 100	CC(C)COC(=O)Nc1cccc(Cc2nn(-c3cc(F)c(F)c(F)c3)ccc2=O)c1 [Example 7, 2-methylpropyl (3-{[4-oxo-1-(3,4,5-trifluorophenyl)-1,4-dihydropyridazin-3-yl]methyl}phenyl)carbamate]
< 100	CC(c1cccc(-c2ncn(C)n2)c1)c1nn(-c2cnn(C)c2)ccc1=O (single isomer, unassigned) [Example 683, 1-(1-methyl-1H-pyrazol-4-yl)-3-{(1R or S)-1-[3-(1-methyl-1H-1,2,4-triazol-3-yl)phenyl]ethyl} pyridazin-4(1H)-one]
1000 to 3000	Cn1cc(-n2ccc(=O)c(Cc3ccc4oc(=O)[nH]c4c3)n2)cn1 [Example 24, 5-{[1-(1-methyl-1H-pyrazol-4-yl)-4-oxo-1,4-dihydropyridazin-3-yl]methyl}-1,3-benzoxazol-2(3H)-one]
< 100	Cn1cc(-n2ccc(=O)c(Cc3cccc(-c4ncc(OCC(O)C(F)(F)F)cn4)c3)n2)cn1 (racemic) [Example 364, rac-1-(1-methyl-1H-pyrazol-4-yl)-3-{3-[5-(3,3,3-trifluoro-2-hydroxypropoxy)pyrimidin-2-yl]benzyl}pyridazin-4(1H)-one]
< 100	O=c1ccn(-c2cc(F)cc(F)c2)nc1Cc1cccc(-c2ncc(OCc3ccccc3)cn2)c1 [Example 125, 3-{3-[5-(benzyloxy)pyrimidin-2-yl]benzyl}-1-(3,5-difluorophenyl)pyridazin-4(1H)-one]
< 100	O=c1ccn(-c2ccc(F)c(F)c2)nc1Cc1cccc(-c2ncc(OCc3ccccc3)cn2)c1 [Example 124, 3-{3-[5-(benzyloxy)pyrimidin-2-yl]benzyl}-1-(3,4-difluorophenyl)pyridazin-4(1H)-one]
< 100	CCOc1cnc(-c2cccc(Cc3nn(-c4ccc(C#N)c(F)c4)ccc3=O)c2)nc1 [Example 148, 4-{3-[3-(5-ethoxypyrimidin-2-yl)benzyl]-4-oxopyridazin-1(4H)-yl}-2-fluorobenzonitrile]
< 100	CC(C)COC(=O)Nc1cccc(Cc2nn(-c3cccc(Br)c3)ccc2=O)c1 [Example 69, 2-methylpropyl (3-{[1-(3-bromophenyl)-4-oxo-1,4-dihydropyridazin-3-yl]methyl}phenyl)carbamate]
< 100	CCn1cc(-n2ccc(=O)c(Cc3cccc(-c4ncc(OCC5CCCO5)cn4)c3)n2)cn1 (racemic) [Example 310, rac-1-(1-ethyl-1H-pyrazol-4-yl)-3-{3-[5-(tetrahydrofaran-2-ylmethoxy)pyrimidin-2-yl]benzyl}pyridazin-4(1H)-one]
< 100	Cn1cc(-n2ccc(=O)c(Cc3cccc(NC(=O)OCCC(F)(F)F)c3)n2)cn1 [Example 564, 3,3,3-trifluoropropyl (3-{[1-(1-methyl-1H-pyrazol-4-yl)-4-oxo-1,4-dihydropyridazin-3-yl]methyl}phenyl)carbamate]
< 100	CCOc1cnc(-c2cccc(C(C)c3nn(-c4cccc(C#N)c4)ccc3=O)c2)nc1 (racemic) [Example 224, rac-3-[3-{1-[3-(5-ethoxypyrimidin-2-yl)phenyl]ethyl}-4-oxopyridazin-1(4H)-yl]benzonitrile]
100 to 1000	Cn1cc(-n2ccc(=O)c(Cc3cccc(-c4nnn(C)n4)c3)n2)cn1 [Example 58, 1-(1-methyl-1H-pyrazol-4-yl)-3-[3-(2-methyl-2H-tetrazol-5-yl)benzyl]pyridazin-4(1H)-one]
100 to 1000	CC(C)Cn1cc(-n2ccc(=O)c(Cc3cccc(NC(=O)OCCN4CCOCC4)c3)n2)cn1 [Example 96, 2-morpholin-4-ylethyl [3-({1-[1-(2-methylpropyl)-1H-pyrazol-4-yl]-4-oxo-1,4-dihydropyridazin-3-yl}methyl)phenyl]carbamate]
< 100	Cn1cc(-n2ccc(=O)c(Cc3cccc(NC(=O)OCC4CCCC4)c3)n2)cn1 [Example 539, cyclopentylmethyl (3-{[1-(1-methyl-1H-pyrazol-4-yl)-4-oxo-1,4-dihydropyridazin-3-yl]methyl}phenyl)carbamate]
< 100	N#Cc1cccc(-n2ccc(=O)c(Cc3cccc(NC(=O)OCC4CNC4)c3)n2)c1 [Example 627, azetidin-3-ylmethyl (3-{[1-(3-cyanophenyl)-4-oxo-1,4-dihydropyridazin-3-yl]methyl}phenyl)carbamate]
1000 to 3000	Cc1ccc2c(Cc3nn(-c4cnn(C)c4)ccc3=O)cccc2n1 [Example 44, 1-(1-methyl-1H-pyrazol-4-yl)-3-[(2-methylquinolin-5-yl)methyl]pyridazin-4(1H)-one]

IC50 [nM]	SMILES
100 to 1000	Cn1cc(-n2ccc(=O)c(Cc3ccc4cnccc4c3)n2)cn1 [Example 74, 3-(isoquinolin-6-ylmethyl)-1-(1-methyl-1H-pyrazol-4-yl)pyridazin-4(1H)-one]
100 to 1000	Cn1cc(-n2ccc(=O)c(Cc3ccc4ncc(OCCN5CCOCC5)cc4c3)n2)cn1 [Example 60, 1-(1-methyl-1H-pyrazol-4-yl)-3-{[3-(2-morpholin-4-ylethoxy)quinolin-6-yl]methyl}pyridazin-4(1H)-one]
< 100	Cn1cc(-n2ccc(=O)c(Cc3cccc(-c4ncc(OCc5ncn(C)n5)cn4)c3)n2)cn1 [Example 356, 1-(1-methyl-1H-pyrazol-4-yl)-3-(3-{5-[(1-methyl-1H-1,2,4-triazol-3-yl)methoxy]pyrimidin-2-yl}benzyl)pyridazin-4(1H)-one]
< 100	CC(c1cccc(-c2ncc(OC3CCOCC3)cn2)c1)c1nn(-c2cnn(C)c2)ccc1=O (single isomer, unassigned) [Example 212, 1-(1-methyl-1H-pyrazol-4-yl)-3-[(1R or S)-1-{3-[5-(tetrahydro-2H-pyran-4-yloxy)pyrimidin-2-yl]phenyl}ethyl]pyridazin-4(1H)-one]
< 100	O=C1CN(CCOC(=O)Nc2cccc(Cc3nn(-c4cc(F)cc(F)c4)ccc3=O)c2)CCN1 [Example 604, 2-(3-oxopiperazin-1-yl)ethyl (3-{[1-(3,5-difluorophenyl)-4-oxo-1,4-dihydropyridazin-3-yl]methyl}phenyl)carbamate]
< 100	COCCOC(=O)Nc1cccc(Cc2nn(-c3cc(F)cc(C(N)=O)c3)ccc2=O)c1 [Example 737, 2-methoxyethyl [3-({1-[3-(aminocarbonyl)-5-fluorophenyl]-4-oxo-1,4-dihydropyridazin-3-yl}methyl)phenyl] carbamate]
< 100	CN(C)C(=O)CCOC(=O)Nc1cccc(Cc2nn(-c3cccc(C#N)c3)ccc2=O)c1 [Example 588, 3-(dimethylamino)-3-oxopropyl (3-{[1-(3-cyanophenyl)-4-oxo-1,4-dihydropyridazin-3-yl]methyl}phenyl)carbamate]
< 100	CCOC(=O)Nc1cccc(Cc2nn(-c3cnn(C(C)C)c3)ccc2=O)c1 [Example 103, ethyl [3-({1-[1-(1-methylethyl)-1H-pyrazol-4-yl]-4-oxo-1,4-dihydropyridazin-3-yl}methyl)phenyl]carbamate]
< 100	Cn1cc(-n2ccc(=O)c(Cc3cccc(NC(=O)OCCC4(O)CCOC(C)(C)C4)c3)n2)cn1 (racemic) [Example 612, rac-2-(4-hydroxy-2,2-dimethyl-tetrahydro-2H-pyran-4-yl)ethyl (3-{[1-(1-methyl-1H-pyrazol-4-yl)-4-oxo-1,4-dihydropyridazin-3-yl]methyl}phenyl)carbamate]
< 100	Cn1cc(-n2ccc(=O)c(Cc3cccc(-c4ncc(N5CCOCC5)cn4)c3)n2)cn1 [Example 472, 1-(1-methyl-1H-pyrazol-4-yl)-3-[3-(5-morpholin-4-ylpyrimidin-2-yl)benzyl]pyridazin-4(1H)-one]
< 100	CCOCc1cnc(-c2cccc(Cc3nn(-c4cnn(C)c4)ccc3=O)c2)nc1 [Example 162, 3-{3-[5-(ethoxymethyl)pyrimidin-2-yl]benzyl}-1-(1-methyl-1H-pyrazol-4-yl)pyridazin-4(1H)-one]
< 100	[2H]C([2H])([2H])C([2H])([2H])Oc1cnc(-c2cccc(Cc3nn(-c4cnn(C)c4)ccc3=O)c2)nc1 [Example 275, 3-[3-(5-ethoxypyrimidin-2-yl)benzyl]-1-(1-methyl-1H-pyrazol-4-yl)pyridazin-4(1H)-one-d5]
< 100	CCn1cc(-n2ccc(=O)c(C(C)c3cccc(-c4ncc(OCC5COCCO5)cn4)c3)n2)cn1 (single isomer, unassigned) [Example 299, 3-[(1R or S)-1-{3-[5-(1,4-dioxan-2-ylmethoxy)pyrimidin-2-yl]phenyl}ethyl]-1-(1-ethyl-1H-pyrazol-4-yl)pyriazin-4(1H)-one]
< 100	Cc1cnc(-c2cccc(Cc3nn(-c4cnn(C)c4)ccc3=O)c2)s1 [Example 19, 1-(1-methyl-1H-pyrazol-4-yl)-3-[3-(5-methyl-1,3-thiazol-2-yl)benzyl]pyridazin-4(1H)-one]
< 100	Cn1cc(-n2ccc(=O)c(Cc3cccc(-c4ncc(OCC5CCOC(C)(C)C5)cn4)c3)n2)cn1 (racemic) [Example 269, rac-3-(3-{5-[(2,2-dimethyltetrahydro-2H-pyran-4-yl)methoxy]pyrimidin-2-yl}benzyl)-1-(1-methyl-1H-pyrazol-4-yl)pyridazin-4(1H)-one]
< 100	CCOc1cnc(-c2cccc(Cc3nn(-c4cc(F)cc(F)c4)ccc3=O)c2)nc1 [Example 146, 1-(3,5-difluorophenyl)-3-[3-(5-ethoxypyrimidin-2-yl)benzyl]pyridazin-4(1H)-one]
< 100	CCn1cc(-n2ccc(=O)c(C(C)c3cccc(-c4ncc(OCC5CCN(C(=O)OC(C)(C)C)CC5)cn4)c3)n2)cn1 (single isomer, unassigned) [Example 291, tert-butyl 4-({[2-(3-{(1R or S)-1-[1-(1-ethyl-1H-pyrazol-4-yl)-4-oxo-1,4-dihydropyridazin-3-yl]ethyl}phenyl)pyrimidin-5-yl]oxy}methyl)piperidine-1-carboxylate]
